Laboratory results taken from publication PMC11579512, “Deoxybouvardin-glucoside induces apoptosis in non-small cell lung cancer cells by targeting EGFR/MET and AKT signaling pathway” (EXCLI Journal, 2024).

Assays:
Assay type in all cases: cell-based, human
CDK6 = test: Immunoblot CDK6 in HCC827 and HCC827GR cells; conditions: for CDK6 protein ratio: relative to DBG 0 nM = 1.00
Method: (§1) HaCaT cells were grown in DMEM, whereas HCC827 and HCC827GR cells were grown in RPMI 1640. All culture media were supplemented with FBS (10 %) and P/S (1 %), and the cells were grown at 37 °C in 5 % CO2.
(§2) Cells were lysed in RIPA buffer, and protein concentration was determined using a Bio-Rad DC Protein Assay kit (Bio-Rad, Hercules, CA, USA). Protein samples from the cell lysates were resolved by sodium dodecyl sulfate-polyacrylamide gel electrophoresis and then transferred onto polyvinylidene fluoride membranes. The membranes were blocked with 3 % or 5 % skim milk and then incubated at 4 °C overnight with the indicated primary antibodies, followed by the corresponding horseradish peroxidase-conjugated secondary antibodies at RT for 2 h. Protein bands were visualized using western blotting luminol reagent solution and ImageQuant LAS 500 (GE Healthcare, Uppsala, Sweden). The density of the bands was quantified using ImageJ software (NIH, Bethesda, MD, USA).

[1] = test system: cytochrome c (mitochondrial); test: Immunoblot mitochondrial cytochrome c in HCC827 and HCC827GR cells; conditions: for cyto c (mitosol) protein Ratio: DBG 0 nM = 1.00
Method: as §2
(§3) The cells were suspended in plasma membrane extraction buffer [250 mM sucrose, 10 mM HEPES (pH 8.0), 10 mM KCl, 1.5 mM MgCl2• 6H2O, 1 mM EGTA, 1 mM EDTA, 0.1 mM PMSF, 0.01 mg/ml aprotinin, and 0.01 mg/ml leupeptin], and 0.1 % digitonin was added for vortexing (1 min). The supernatant was collected as the cytosolic fraction. The pellet was resuspended in plasma membrane extraction buffer containing 0.5 % Triton X-100. The lysates were centrifuged at 13,000 rpm for 30 min to separate the mitochondrial fraction.

caspase-3 = test: Immunoblot caspase-3 in HCC827 and HCC827GR cells; conditions: for caspase3 protein Ratio: DBG 0 nM = 1.00
Method: as §1, §2

p27 = test: Immunoblot p27 in HCC827 and HCC827GR cells
Method: as §1, §2

cytochrome c (cytosol) = test: Immunoblot cytosolic cytochrome c in HCC827 and HCC827GR cells
Method: as §2, §3

p-EGFR (Y1068) = test: Western blot p-EGFR (Y1068) in HCC827 and HCC827GR cells; conditions: DBG 3, 6, 12 nM, 48 h
Method: as §1, §2

CDK2 = test: Immunoblot CDK2 in HCC827 and HCC827GR cells; conditions: for CDK2 protein ratio: relative to DBG 0 nM = 1.00
Method: as §1, §2

HCC827 cells = test: Soft agar anchorage-independent growth, HCC827; conditions: 2 weeks
Method: The anchorage-independent cell growth assay was performed in 6-well plates with dual agar layers containing 0.6 % agar (lower layer) and 0.3 % agar (upper layer) supplemented with BME, 2 mM L-glutamine, 5 μg/ml gentamicin, and 10 % FBS. After 2 weeks of incubation, the number of colonies was assessed using a microscope (Leica, Wetzlar, Germany), and the mean colony area was analyzed using i-Solution ^TM software (Vancouver, BC, Canada).

COc1ccc(C[C@H]2C(=O)N[C@@H](C)C(=O)N(C)[C@H]3Cc4ccc(cc4)Oc4cc(ccc4O[C@@H]4O[C@H](CO)[C@@H](O)[C@H](O)[C@H]4O)C[C@@H](C(=O)N[C@H](C)C(=O)N[C@@H](C)C(=O)N2C)N(C)C3=O)cc1 [DBG, deoxybouvardin glucoside]
level of CDKs (CDK6) (CDK6; DBG 3, 6, 12 nM, 48 h): significantly decreased
CDK6 protein/actin (CDK6; HCC827, DBG 3 nM, DBG 0 nM 0.53): 0.32
CDK6 protein ratio (CDK6; HCC827, DBG 3 nM): 0.60
CDK6 protein/actin (CDK6; HCC827, DBG 6 nM, DBG 0 nM 0.53): 0.19
CDK6 protein ratio (CDK6; HCC827, DBG 6 nM): 0.36
CDK6 protein/actin (CDK6; HCC827, DBG 12 nM, DBG 0 nM 0.53): 0.07
CDK6 protein ratio (CDK6; HCC827, DBG 12 nM): 0.14
CDK6 protein/actin (CDK6; HCC827GR, DBG 3 nM, DBG 0 nM 0.70): 0.55
CDK6 protein ratio (CDK6; HCC827GR, DBG 3 nM): 0.79
CDK6 protein/actin (CDK6; HCC827GR, DBG 6 nM, DBG 0 nM 0.70): 0.47
CDK6 protein ratio (CDK6; HCC827GR, DBG 6 nM): 0.67
CDK6 protein/actin (CDK6; HCC827GR, DBG 12 nM, DBG 0 nM 0.70): 0.30
CDK6 protein ratio (CDK6; HCC827GR, DBG 12 nM): 0.43
cyto c (mitosol) cyto c/COX4/actin (A) ([1]; HCC827, DBG 3 nM, DBG 0 nM 119.45): 66.38
cyto c (mitosol) protein Ratio ([1]; HCC827, DBG 3 nM): 0.56
cyto c (mitosol) cyto c/COX4/actin (A) ([1]; HCC827, DBG 6 nM, DBG 0 nM 119.45): 25.00
cyto c (mitosol) protein Ratio ([1]; HCC827, DBG 6 nM): 0.21
cyto c (mitosol) cyto c/COX4/actin (A) ([1]; HCC827, DBG 12 nM, DBG 0 nM 119.45): 23.24
cyto c (mitosol) protein Ratio ([1]; HCC827, DBG 12 nM): 0.19
cyto c (mitosol) cyto c/COX4/actin (A) ([1]; HCC827GR, DBG 3 nM, DBG 0 nM 168.86): 137.25
cyto c (mitosol) protein Ratio ([1]; HCC827GR, DBG 3 nM): 0.81
cyto c (mitosol) cyto c/COX4/actin (A) ([1]; HCC827GR, DBG 6 nM, DBG 0 nM 168.86): 47.89
cyto c (mitosol) protein Ratio ([1]; HCC827GR, DBG 6 nM): 0.28
cyto c (mitosol) cyto c/COX4/actin (A) ([1]; HCC827GR, DBG 12 nM, DBG 0 nM 168.86): 7.39
cyto c (mitosol) protein Ratio ([1]; HCC827GR, DBG 12 nM): 0.0438
caspase3 protein/actin (caspase-3; HCC827, DBG 3 nM, DBG 0 nM 0.88): 0.62
caspase3 protein Ratio (caspase-3; HCC827, DBG 3 nM): 0.71
caspase3 protein/actin (caspase-3; HCC827, DBG 6 nM, DBG 0 nM 0.88): 0.55
caspase3 protein Ratio (caspase-3; HCC827, DBG 6 nM): 0.62
caspase3 protein/actin (caspase-3; HCC827, DBG 12 nM, DBG 0 nM 0.88): 0.14
caspase3 protein Ratio (caspase-3; HCC827, DBG 12 nM): 0.16
caspase3 protein/actin (caspase-3; HCC827GR, DBG 3 nM, DBG 0 nM 0.55): 0.60
caspase3 protein Ratio (caspase-3; HCC827GR, DBG 3 nM): 1.11
caspase3 protein/actin (caspase-3; HCC827GR, DBG 6 nM, DBG 0 nM 0.55): 0.48
caspase3 protein Ratio (caspase-3; HCC827GR, DBG 6 nM): 0.87
caspase3 protein/actin (caspase-3; HCC827GR, DBG 12 nM, DBG 0 nM 0.55): 0.30
caspase3 protein Ratio (caspase-3; HCC827GR, DBG 12 nM): 0.54
level of whole caspase-3 (caspase-3; HCC827 and HCC827GR, DBG): decreased
level of p27 (p27; DBG, 48 h): increasing p27
p27 protein/actin (p27; HCC827, DBG 3 nM, DBG 0 nM 0.14): 0.14
p27 protein ratio (p27; HCC827, DBG 3 nM, relative to DBG 12 nM = 1.00, DBG 0 nM 0.34): 0.33
p27 protein/actin (p27; HCC827, DBG 6 nM, DBG 0 nM 0.14): 0.40
p27 protein ratio (p27; HCC827, DBG 6 nM, relative to DBG 12 nM = 1.00, DBG 0 nM 0.34): 0.96
p27 protein ratio (p27; HCC827, DBG 12 nM (set to 1.00), DBG 0 nM 0.34): 1.00
p27 protein/actin (p27; HCC827, DBG 12 nM, DBG 0 nM 0.14): 0.42
p27 protein/actin (p27; HCC827GR, DBG 3 nM, DBG 0 nM 0.06): 0.09
p27 protein ratio (p27; HCC827GR, DBG 3 nM, relative to DBG 12 nM = 1.00, DBG 0 nM 0.08): 0.11
p27 protein/actin (p27; HCC827GR, DBG 6 nM, DBG 0 nM 0.06): 0.69
p27 protein ratio (p27; HCC827GR, DBG 6 nM, relative to DBG 12 nM = 1.00, DBG 0 nM 0.08): 0.90
p27 protein ratio (p27; HCC827GR, DBG 12 nM (set to 1.00), DBG 0 nM 0.08): 1.00
p27 protein/actin (p27; HCC827GR, DBG 12 nM, DBG 0 nM 0.06): 0.77
cyto c (cytosol) cyto c/β-tubulin/actin (A) (cytochrome c (cytosol); HCC827, DBG 3 nM, DBG 0 nM 12.22): 16.55
cyto c (cytosol) protein Ratio (cytochrome c (cytosol); HCC827, DBG 3 nM, relative to DBG 12 nM = 1.00, DBG 0 nM 0.18): 0.25
cyto c (cytosol) cyto c/β-tubulin/actin (A) (cytochrome c (cytosol); HCC827, DBG 6 nM, DBG 0 nM 12.22): 47.59
cyto c (cytosol) protein Ratio (cytochrome c (cytosol); HCC827, DBG 6 nM, relative to DBG 12 nM = 1.00, DBG 0 nM 0.18): 0.72
cyto c (cytosol) protein Ratio (cytochrome c (cytosol); HCC827, DBG 12 nM (reference of the ratio, 1.00), DBG 0 nM 0.18): 1.00
cyto c (cytosol) cyto c/β-tubulin/actin (A) (cytochrome c (cytosol); HCC827, DBG 12 nM, DBG 0 nM 12.22): 66.24
cyto c (cytosol) cyto c/β-tubulin/actin (A) (cytochrome c (cytosol); HCC827GR, DBG 3 nM, DBG 0 nM 5.99): 33.57
cyto c (cytosol) protein Ratio (cytochrome c (cytosol); HCC827GR, DBG 3 nM, relative to DBG 12 nM = 1.00, DBG 0 nM 0.07): 0.41
cyto c (cytosol) cyto c/β-tubulin/actin (A) (cytochrome c (cytosol); HCC827GR, DBG 6 nM, DBG 0 nM 5.99): 49.49
cyto c (cytosol) protein Ratio (cytochrome c (cytosol); HCC827GR, DBG 6 nM, relative to DBG 12 nM = 1.00, DBG 0 nM 0.07): 0.60
cyto c (cytosol) protein Ratio (cytochrome c (cytosol); HCC827GR, DBG 12 nM (reference of the ratio, 1.00), DBG 0 nM 0.07): 1.00
cyto c (cytosol) cyto c/β-tubulin/actin (A) (cytochrome c (cytosol); HCC827GR, DBG 12 nM, DBG 0 nM 5.99): 82.76
cytochrome c release (cytochrome c (cytosol); NSCLC cells, DBG, cytosolic and mitochondrial fractions): released from the mitochondria
phosphorylation level of EGFR (p-EGFR (Y1068)): decreased
level of CDKs (CDK2) (CDK2; DBG 3, 6, 12 nM, 48 h): significantly decreased
CDK2 protein/actin (CDK2; HCC827, DBG 3 nM, DBG 0 nM 0.56): 0.43
CDK2 protein ratio (CDK2; HCC827, DBG 3 nM): 0.77
CDK2 protein/actin (CDK2; HCC827, DBG 6 nM, DBG 0 nM 0.56): 0.20
CDK2 protein ratio (CDK2; HCC827, DBG 6 nM): 0.36
CDK2 protein/actin (CDK2; HCC827, DBG 12 nM, DBG 0 nM 0.56): 0.17
CDK2 protein ratio (CDK2; HCC827, DBG 12 nM): 0.30
CDK2 protein/actin (CDK2; HCC827GR, DBG 3 nM, DBG 0 nM 0.58): 0.44
CDK2 protein ratio (CDK2; HCC827GR, DBG 3 nM): 0.76
CDK2 protein/actin (CDK2; HCC827GR, DBG 6 nM, DBG 0 nM 0.58): 0.36
CDK2 protein ratio (CDK2; HCC827GR, DBG 6 nM): 0.62
CDK2 protein/actin (CDK2; HCC827GR, DBG 12 nM, DBG 0 nM 0.58): 0.25
CDK2 protein ratio (CDK2; HCC827GR, DBG 12 nM): 0.44
colony number, Control % (HCC827 cells; DBG 3 nM): 58.65%
colony size, Control % (HCC827 cells; DBG 3 nM): 78.77%
colony number, Control % (HCC827 cells; DBG 6 nM): 34.62%
colony size, Control % (HCC827 cells; DBG 6 nM): 57.75%
colony number, Control % (HCC827 cells; DBG 12 nM): 0.00%
colony size, Control % (HCC827 cells; DBG 12 nM): 0.00%
